{"source": "paper PMC11205114", "about": "“A Multiomics Perspective on Plant Cell Wall-Degrading Enzyme Production: Insights from the Unexploited Fungus Trichoderma erinaceum” (Journal of Fungi, 2024)", "key": {"TrCel3B [1]": {"target": "T1, TrCel3B (Trichoderma reesei, UniProt G0RJ07)", "T1 construct": "gene cel3b; gene 2622 bp, 96 kDa", "T1 sequence (G0RJ07 19-874)": "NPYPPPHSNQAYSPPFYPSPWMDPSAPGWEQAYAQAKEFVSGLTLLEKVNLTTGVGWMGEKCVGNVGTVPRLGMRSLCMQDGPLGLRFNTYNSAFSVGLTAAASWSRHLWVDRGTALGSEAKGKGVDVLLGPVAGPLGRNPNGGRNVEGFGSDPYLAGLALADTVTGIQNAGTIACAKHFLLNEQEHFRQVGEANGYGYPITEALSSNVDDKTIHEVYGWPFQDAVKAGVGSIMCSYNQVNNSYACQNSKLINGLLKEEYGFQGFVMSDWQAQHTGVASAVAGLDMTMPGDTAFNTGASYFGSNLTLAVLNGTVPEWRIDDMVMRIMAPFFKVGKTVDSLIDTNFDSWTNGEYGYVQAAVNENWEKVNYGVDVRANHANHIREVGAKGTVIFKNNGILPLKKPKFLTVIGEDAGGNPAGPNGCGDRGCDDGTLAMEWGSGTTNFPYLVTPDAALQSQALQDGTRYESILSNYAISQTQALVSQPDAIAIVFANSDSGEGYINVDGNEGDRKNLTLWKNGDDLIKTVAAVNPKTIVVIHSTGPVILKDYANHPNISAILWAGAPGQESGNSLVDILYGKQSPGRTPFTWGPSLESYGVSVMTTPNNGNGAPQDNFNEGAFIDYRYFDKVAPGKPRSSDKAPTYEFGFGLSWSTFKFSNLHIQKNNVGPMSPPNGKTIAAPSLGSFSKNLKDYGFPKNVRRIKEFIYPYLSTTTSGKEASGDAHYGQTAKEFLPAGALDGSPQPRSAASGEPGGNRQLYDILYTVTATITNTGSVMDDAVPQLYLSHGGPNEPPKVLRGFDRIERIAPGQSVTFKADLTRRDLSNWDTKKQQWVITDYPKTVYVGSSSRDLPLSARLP", "assay": "pNPG hydrolysis, pNP release at […] nm", "format": "biochemical", "conditions": "pNPG substrate (5 mM stock), pH 4.5, 60 °C"}, "TrCel3B [2]": {"target": "T1, TrCel3B", "assay": "pNP release at […] nm", "format": "biochemical", "conditions": "pH 5.5, 50 °C (methods; figure legend 60 °C), 30 min"}}, "data": [{"smiles": "OC[C@H]1OC(O)[C@H](O)[C@@H](O)[C@@H]1O", "note": "(some centres unmarked) [glucose]", "values": [{"measurement": "% inhibition", "setting": "TrCel3B [1]", "result": "TeBgl3C showed a slightly higher tolerance to glucose than TrCel3B"}]}, {"smiles": "O=[N+]([O-])c1ccc(O[C@@H]2O[C@H](CO)[C@@H](O)[C@H](O)[C@H]2O)cc1", "note": "[4-nitrophenyl β-D-glucopyranoside]", "values": [{"measurement": "pNP release at 405 nm", "setting": "TrCel3B [2]", "result": "TeBgl3C and TrCel3B displayed the highest specific activities on pNPG"}]}]}
